Results published in patent publication US20150354009A1, “COLORECTAL CANCER CLASSIFICATION WITH DIFFERENTIAL PROGNOSIS AND PERSONALIZED THERAPEUTIC RESPONSES” (ECOLE POLYTECHNIQUE FEDERALE DE LAUSANNE (EPFL), priority 2012, published 2015).

Test system: CRC cell lines
Assay: Drug response in cell lines (CellTiter-Glo proliferation, 72 h)
Type: cell-based, human
Details: PHA-665752 125 nM, relative to vehicle-treated cells (FIG. 3E)
Method: Colon cancer cell lines were grown in DMEM (Gibco, USA) plus 10% FBS (Invitrogen, USA) without antibiotics/antimycotics. All the cell lines were confirmed to be negative for mycoplamsa by PCR (VenorGeM kit, Sigma, USA) prior to use and were tested monthly.
Proliferation was monitored using CellTiter-Glo® assay kit according to the manufacturer's instruction (Promega, Dubendorf, Switzerland) on day 3 (72 h).

SMILES: Cc1[nH]c(/C=C2\C(=O)Nc3ccc(S(=O)(=O)Cc4c(Cl)cccc4Cl)cc32)c(C)c1C(=O)N1CCC[C@@H]1CN1CCCC1 [cMet inhibitor, PHA-665752]
- sensitivity to cMet inhibition, CR-TA versus CS-TA cell lines: CR-TA cell lines were much more sensitive to cMet inhibition than CS-TA cell lines
